Results published in patent US7465448B2, “Chemokine receptor antagonists as therapeutic agents” (Medical College of Georgia Research Institute, Inc., priority 2002, dated 2008).
Entries after “also recorded” stand apart in the source; their conditions may differ. Each block holds one compound with its values, some of them ahead of it.

What was measured:
[1] = target: T1, IDO (Mus musculus, UniProt P28776); assay: MLR with sorted mouse tumor-draining lymph node cell fractions and BM3 T cell responders, with or without 1MT; assay type: cell-based; settings: wild-type host, B78.GM tumor-draining LN
T1 construct: from tissue; host or cells: tumor-draining inguinal lymph node cells (sorted fractions) of C57BL/6 mice bearing B78.GM tumors
T1 sequence (P28776 whole entry): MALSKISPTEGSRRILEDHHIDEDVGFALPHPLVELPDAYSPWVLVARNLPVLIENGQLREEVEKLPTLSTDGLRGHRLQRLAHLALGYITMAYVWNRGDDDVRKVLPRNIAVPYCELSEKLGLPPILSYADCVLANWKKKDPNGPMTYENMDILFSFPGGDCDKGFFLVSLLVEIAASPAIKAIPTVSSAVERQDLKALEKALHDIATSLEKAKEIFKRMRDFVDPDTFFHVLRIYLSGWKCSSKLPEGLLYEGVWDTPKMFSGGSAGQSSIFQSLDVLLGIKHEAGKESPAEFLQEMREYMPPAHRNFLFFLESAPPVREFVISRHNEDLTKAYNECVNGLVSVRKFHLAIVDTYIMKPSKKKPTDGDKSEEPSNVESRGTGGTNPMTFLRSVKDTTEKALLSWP
Description: (§1) Lymph node (LN) cells were harvested from inguinal LNs draining established B78.GM tumors. Control cells were harvested from the contralateral inguinal nodes in the same mouse. LN cells were irradiated and used as stimulators in allo-MLRs, with the responder cells being TCR-transgenic CD8^+ T cells from BM3 mice, as BM3 T cells recognize H-2K^b as an alloantigen (Tarazona, R., et al., Int. Immunol., 8:351-358, (1996)), and thus are reactive with all MHC class I positive cells from C57BL/6 tumor-bearing hosts. These cells are known by those of skill in the art to be a recognized assay system for IDO-mediated suppression of the T cell response (Munn, D. H., et al., Science, 297:1867-1870, (2002); Lee et al., Immunol., 107:1-9, (2002)). […] To determine the etiology of T cell suppression by APCs, tumor draining lymph node cells were harvested from B78.GM tumors and sorted into a B220^+ CD11c^+ plasmacytoid dendritic cell (pDC) fraction and a CD25^+CD4^+ regulatory T-cell (Treg) fraction. A third “all other” fraction was also collected. Each fraction was used as stimulators in an MLR with BM3 responders. […] Pooled draining LN cells (4 nodes) were stained and fractionated by 4-color cell sorting for the two populations shown in the top schematic. All other cells were collected in a third fraction. Each fraction was then used as stimulators in MLRs (FIG. 13), using 50,000 BM3 T cells as responders. The number of stimulators used in each MLR was adjusted to be the same as would have been present in 50,000 cells of the original LN preparation, based on the measured percentage of each sorted fraction. Thus, in the experiment shown, 500 cells of the sorted B220^+ CD11c^+ fraction were added per well, and 1500 cells of the CD25^+ CD4^+ fraction, while 48,000 cells of the “all other” fraction were used.

[2] = tested on: IDO; assay: as above; assay type: cell-based
Description: as §1

[3] = tested on: CCR6^+/IDO^+ APCs; assay: Mip-3α-induced chemotaxis of dendritic cells, upper/lower chamber (Example 8); assay type: cell-based, human; settings: 0.5×10^6 DCs/well, after 4 hours
Method: In this experiment, mip-3α-induced chemotaxis of CCR6^+/IDO^+ APCs was measured. Dendritic cells matured with a cytokine cocktail as described herein were used for a chemotaxis assay with mip-3α as the chemoattractant. Thus, monocytes were cultured in serum free medium (X-Vivo15) for five days in the presence of GMCSF (50 ng/mL) and IL-4 (50 ng/mL). After five days, cells were treated with a cytokine cocktail consisting of IL-1β (1870 U/mL), IL-6 (1000 U/mL), TNFα (1100 U/mL) and prostaglandin E2 (PGE2; 1.0 μg/mL), for two days. The cells were harvested and used for the chemotaxis assay. Control starting DCs were immunostained for CD123 and CCR6 (“Pre-Chemotaxis DCs”).
Mip-3α (0.5 μg/mL) was added to the different chambers and a defined number of DCs (0.5×10^6/well) were put on the upper chamber. After 4 hours, cells were counted in lower chamber of each group (Table 2). FACS immunostain was performed on all groups for CCR6 and CD123 (FIG. 7). […] Migration required a gradient of mip-3α from the upper chamber to the lower chamber, consistent with ligand induced chemotaxis.

[4] = target: T2, CCR6 receptor (Homo sapiens, UniProt P51684); assay: Mip-3α gradient migration of mixed DCs with or without blocking anti-CCR6 antibody (Example 9); assay type: cell-based
T2 construct: a mixture of both CD123-positive (CCR6-positive) and CD123-negative (CCR6-negative) cells; endogenous in cells; host or cells: human monocyte-derived dendritic cells (mixed adherent and non-adherent fractions)
T2 sequence (P51684 1-374): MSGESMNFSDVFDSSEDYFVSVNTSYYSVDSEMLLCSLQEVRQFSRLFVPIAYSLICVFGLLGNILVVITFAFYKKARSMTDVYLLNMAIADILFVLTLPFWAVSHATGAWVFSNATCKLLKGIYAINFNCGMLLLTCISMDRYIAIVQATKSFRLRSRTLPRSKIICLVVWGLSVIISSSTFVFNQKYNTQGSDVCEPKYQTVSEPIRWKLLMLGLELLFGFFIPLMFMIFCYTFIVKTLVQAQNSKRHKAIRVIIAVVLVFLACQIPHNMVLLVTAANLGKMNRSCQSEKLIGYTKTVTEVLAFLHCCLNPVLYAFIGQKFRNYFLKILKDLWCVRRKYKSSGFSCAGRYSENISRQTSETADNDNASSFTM
Description: Monocyte-derived human dendritic cells (adherent and non-adherent fractions) were harvested and pooled, as described in Example 8, yielding a preparation comprising a mixture of both CD123-positive (CCR6-positive) and CD123-negative (CCR6-negative) cells. In Example 8, it was shown that a gradient of mip-3α caused selective migration of the CD123+ (CCR6+) population.
The mixed population of DCs was allowed to migrate across a porous membrane in response to a gradient of mip-3alpha, as described in Example 8. Different treatment groups received a commercial anti-CCR6 antibody (10 ug/ml), an isotype-matched control antibody at the same concentration, or no antibody. After 18 hrs, migrating cells (recovered in the lower chamber of the chemotaxis assay apparatus) were harvested, counted, and analyzed by flow cytometry for CD123 expression. CD123 was used as a marker to identify the IDO-expressing population, rather than CCR6, because the anti-CCR6 blocking antibody could artifactually interfere with immunofluorescent staining for CCR6. Since both markers are co-expressed on the IDO+ cells with a one-to-one correspondence, either marker gives equivalent information.

[5] = target: T3, CXCR4 (Homo sapiens, UniProt P61073); assay: Yeast (S. cerevisiae) pheromone-pathway signaling assay with expressed CXCR4; assay type: cell-based; settings: yeast strains expressing CXCR4-WT; not in control cells lacking the receptor
T3 construct: expressed in transfected cells; host or cells: Saccharomyces cerevisiae, CXCR4 subcloned in the Cp4258 vector, coupled through a mammalian/yeast hybrid G subunit
T3 sequence (P61073 whole entry, species assumed): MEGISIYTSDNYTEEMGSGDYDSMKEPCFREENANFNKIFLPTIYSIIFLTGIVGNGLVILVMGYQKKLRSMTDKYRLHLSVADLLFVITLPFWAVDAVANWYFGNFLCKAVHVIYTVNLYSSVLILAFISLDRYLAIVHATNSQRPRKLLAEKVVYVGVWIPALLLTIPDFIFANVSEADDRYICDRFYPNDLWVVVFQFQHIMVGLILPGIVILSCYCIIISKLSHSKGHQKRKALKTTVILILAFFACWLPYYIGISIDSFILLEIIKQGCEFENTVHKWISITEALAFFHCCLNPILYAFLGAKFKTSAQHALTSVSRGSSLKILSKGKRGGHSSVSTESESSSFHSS
Description: For example, CCR6 can be functionally expressed in S. cerevisiae for the purpose of screening putative antagonists and for generating constitutively active mutants (CAMs). Similar studies have been performed by the inventors using related […] receptors CXCR4 and CCR5. Thus, chemokine receptors CXCR4 and CCR5 were expressed in a yeast strain in which these guanine nucleotide protein receptors (GPRs) were coupled to the mating pheromone response pathway by a mammalian/yeast hybrid G subunit. Consequently, stimulation of CXCR4 and CCR5 by the cognate ligands (SDF-1 and RANTES, respectively) activated signal transduction that results in histidine prototrophy or, in strains also carrying a pheromone-responsive FUS1-lacZ reporter gene, beta-galactosidase expression. In these experiments, SDF-1 stimulated histidine-independent growth and reporter gene expression in yeast strains expressing CXCR4-WT, but not in control cells lacking the receptor. […] All available CXCR4 antagonists blocked growth in histidine deficient medium resulting from CXCR4 activation and the induction of reporter gene expression stimulated by SDF-1.

Suppression by B220+ CD11c+ (pDC) fraction [1]: fully reversed
Compound: Cn1cc(CC(N)C(=O)O)c2ccccc21 (centres unmarked) [1-MT, 1-methyl-(D,L)-tryptophan]
IDO-mediated suppression in mixing experiments (pDCs plus "all other" fraction) [1]: can be fully reversed; also recorded: again fully reversed
Effect on MLR with LN fractions from IDO-knockout host ([2]; IDO-KO host, any group): no enhancing effect
Suppression mediated by CD25+ CD4+ Tregs ([2]; wild-type host, B78.GM tumor-draining LN): not affected

Increase of migration of CD123+ cells ([4]; gradient of mip-3α, 18 hrs): > 10 fold
Purity of CD123+ cells in migrated population ([4]; gradient of mip-3α, starting population 68% CD123+): 96%
Mip-3α induced migration without gradient ([4]; mip-3α present on both sides of the membrane): substantially reduced
Compound: Mip-3α: chemokine, ligand for the CCR6 chemokine receptor; chemotactic factor for immature dendritic cells
Number of Cells in Lower Chamber ([3]; Mip-3α (0.5 μg/mL) in lower chamber only (gradient)): 2.96
Number of Cells in Lower Chamber ([3]; Mip-3α (0.5 μg/mL) in upper and lower chamber): 0.98
Number of Cells in Lower Chamber ([3]; Mip-3α (0.5 μg/mL) in upper chamber only): 0.73

Histidine-independent growth and reporter gene expression [5]: stimulated
Compound: SDF-1: cognate ligand of CXCR4
